The text below walks through data of US6080758A, “Benzenesulfonamide derivatives as bradykinin antagonists” (Fournier Industrie et Sante, priority 1995, dated 2000).

The target of the assay is T1, bradykinin B2 receptor (Cavia porcellus, UniProt O70526).
T1 construct: Ileum segments are isolated from male guinea-pigs; tissue Iffa Credo, l'Arbresle, France (supplier of the animals); host or cells: ileum membranes of male Dunkin-Hartley guinea-pigs
T1 sequence (O70526 1-372): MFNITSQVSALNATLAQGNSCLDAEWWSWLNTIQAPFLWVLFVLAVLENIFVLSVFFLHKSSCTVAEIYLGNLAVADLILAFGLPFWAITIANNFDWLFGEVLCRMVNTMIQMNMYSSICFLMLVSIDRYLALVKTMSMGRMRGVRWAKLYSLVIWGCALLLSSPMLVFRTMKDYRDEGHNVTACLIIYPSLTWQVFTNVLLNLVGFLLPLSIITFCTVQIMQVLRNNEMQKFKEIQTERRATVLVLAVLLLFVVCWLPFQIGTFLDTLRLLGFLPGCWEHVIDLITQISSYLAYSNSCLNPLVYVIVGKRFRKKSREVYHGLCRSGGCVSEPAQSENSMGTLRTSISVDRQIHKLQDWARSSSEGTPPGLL
The assay can be described thus: [3H]-bradykinin binding to guinea-pig ileum membranes. To be noted: test compound 10^-6 M, [3H]-bradykinin 120 pM, 90 min at 20° C., read-out: Activity (%): percentage inhibition of the binding of [3H]-bradykinin. On the procedure: We used the following pharmacological test: Ileum segments are isolated from male guinea-pigs of the Dunkin-Hartley strain (Iffa Credo, l'Arbresle, France) and ground in the following TES buffer: TES 25 mM, 1,10-phenanthroline 1 mM (pH 6.8), bacitracin 140 μg/ml, BSA 1 g/l. The membranes are then isolated by centrifugation (18,000 rpm; 20 min; 4° C.). The binding studies are carried out in the TES buffer using [^3 H]-bradykinin (120 pM) and 50 μg of membrane protein per test (final volume 500 μl) with an equilibrium time of 90 min at 20° C. The percentage inhibition of the binding of [^3 H]-bradykinin is then determined in the presence of one of the test compounds according to the invention at a concentration of 10^-6 M.
The results obtained (indicated as "activity") from these tests are collated in Table I below with reference to the Examples given in the description.

Turning to `Cc1ccc2cccc(OCc3c(Cl)ccc(S(=O)(=O)N4CCC(O)C4)c3Cl)c2n1` (stereo not shown) [Example 14, 3-Hydroxy-1-[[3-[(2-methylquinolin-8-yl)oxymethyl]-2,4-dichlorophenyl]-sulfonyl]pyrrolidine], the inhibition at 1 µM came out at 94%.
Then `COC(=O)C1CCCN1S(=O)(=O)c1ccc(Cl)c(COc2cccc3ccc(C)nc23)c1Cl` (racemic) [Example 1, N-[[3-[(2-Methylquinolin-8-yl)oxymethyl]-2,4-dichlorophenyl]sulfonyl]-D,L-proline Methyl Ester], with 97.8%; and `Cc1ccc2cccc(OCc3c(Cl)ccc(S(=O)(=O)N4CCCC4C(=O)OCCCN(C)C)c3Cl)c2n1` (racemic) [Example 11, N-[[3-[(2-Methylquinolin-8-yl)oxymethyl]-2,4-dichlorophenyl]sulfonyl]-D,L-proline 3-(dimethylamino)propyl Ester], with 76.9%; and `Cc1ccc2cccc(OCc3c(Cl)ccc(S(=O)(=O)N4CCCC4C(=O)NCCCN)c3Cl)c2n1` (stereo not shown) [Example 9, 1-[[3-[(2-Methylquinolin-8-yl)oxymethyl]-2,4-dichlorophenyl]sulfonyl]-N-[3-aminopropyl]-2-pyrrolidinecarboxamide], with 97.6%.
In the case of `Cc1ccc2cccc(OCc3c(Cl)ccc(S(=O)(=O)N4CCCC4C(=O)NCCCO)c3Cl)c2n1` (stereo not shown) [Example 6] it was 90.9%; in that of `CCNC(=O)[C@@H]1CCCN1S(=O)(=O)c1ccc(Cl)c(COc2cccc3ccc(C)nc23)c1Cl` [Example 12, 1-[[3-[(2-Methylquinolin-8-yl)oxymethyl]-2,4-dichlorophenyl]sulfonyl]-N-ethyl-2-(S)-pyrrolidinecarboxamide], 98.5%; in that of `Cc1ccc2cccc(OCc3c(Cl)ccc(S(=O)(=O)n4cccc4)c3Cl)c2n1` [Example 17, 1-[[3-[(2-Methylquinolin-8-yl)oxymethyl]-2,4-dichlorophenyl]sulfonyl]pyrrole], 93.8%.
Turning to `CC(=O)NC1CCN(S(=O)(=O)c2ccc(Cl)c(COc3cccc4ccc(C)nc34)c2Cl)C1` (stereo not shown) [Example 13, 3-[(1-Oxoethyl)amino]-1-[[3-[(2-methylquinolin-8-yl)oxymethyl]-2,4-dichlorophenyl]sulfonyl]pyrrolidine], the inhibition at 1 µM came out at 98.6%.
On to `Cc1ccc2cccc(OCc3c(Cl)ccc(S(=O)(=O)N4CCCC4C(=O)NCCN(C)C)c3Cl)c2n1` (stereo not shown) [Example 8, 1-[[3-[(2-Methylquinolin-8-yl)oxymethyl]-2,4-dichlorophenyl]sulfonyl]-N-[2-dimethylaminoethyl]-2-pyrrolidinecarboxamide Dihydrochioride], for which the inhibition at 1 µM turned out to be 95.5%.
For `Cc1ccc2cccc(OCc3c(Cl)ccc(S(=O)(=O)N4CCCC4C(=O)NCCCCCO)c3Cl)c2n1` (stereo not shown) [Example 7, 1-[[3-[(2-Methylquinolin-8-yl)oxymethyl]-2,4-dichlorophenyl]sulfonyl]-N-[5-hydroxypentyl]-2-pyrrolidinecarboxamide], the inhibition at 1 µM was 97.8%.
Then `Cc1ccc2cccc(OCc3c(Cl)ccc(S(=O)(=O)N4CCCC4C(=O)NCc4ccccc4)c3Cl)c2n1` (stereo not shown) [Example 10, 1-[[3-[(2-Methylquinolin-8-yl)oxymethyl]-2,4-dichlorophenyl]sulfonyl]-N-[phenylmethyl]-2-pyrrolidinecarboxamide], with 96.4%; and `COCCNC(=O)C1CCCN1S(=O)(=O)c1ccc(Cl)c(COc2cccc3ccc(C)nc23)c1Cl` (stereo not shown) [Example 4, 1-[[3-[(2-Methylquinolin-8-yl)oxymethyl]-2,4-dichlorophenyl]sulfonyl]-N-[2-methoxyethyl]-2-pyrrolidinecarboxamide], with 92.6%; and `Cc1ccc2cccc(OCc3c(Cl)ccc(S(=O)(=O)N4CCSC4)c3Cl)c2n1` [Example 15, 3-[[3-[(2-Methylquinolin-8-yl)oxymethyl]-2,4-dichlorophenyl]sulfonyl]-thiazolidine], with 94.9%.
In the case of `Cc1ccc2cccc(OCc3c(Cl)ccc(S(=O)(=O)N4CCCC4)c3Cl)c2n1` [Example 16, 1-[[3-[(2-Methylquinolin-8-yl)oxymethyl]-2,4-dichlorophenyl]sulfonyl]-pyrrolidine] it was 90.1%; in that of `Cc1ccc2cccc(OCc3c(Cl)ccc(S(=O)(=O)N4CCCC4C(=O)NCCO)c3Cl)c2n1` (stereo not shown) [Example 5, 1-[[3-[(2-Methylquinolin-8-yl)oxymethyl]-2,4-dichlorophenyl]sulfonyl]-N-[2-hydroxyethyl]-2-pyrrolidinecarboxamide], 90.1%.
Then `COC(=O)[C@@H]1CCCN1S(=O)(=O)c1ccc(Cl)c(COc2cccc3ccc(C)nc23)c1Cl` [Example 2, N-[[3-[(2-Methylquinolin-8-yl)oxymethyl]-2,4-dichlorophenyl]sulfonyl]-L-proline Methyl Ester], with 98.6%.

In general, inhibition refers to the change of the read-out against control, counted positive when it falls.
